Reference: patent US4732970A, “Antitumor amino acid and peptide derivatives of 1,4-bis(aminoalkyl and hydroxy-aminoalkyl)amino)-5,8-dihydroxyanthraquinones” (priority 1986, dated 1988)

Test system: lymphocytic leukemia P388
Assay: Lymphocytic Leukemia P388 Test
Format: in vivo, BDF1 mice
Details: for Median Survival: BDF1 mice; for T/C × 100 (%): ratio of survival time treated/control
Experimental: The animals used were BDF1 mice, all of one sex, weighing a minimum of 18 g and all within a 3 g weight range. There were 5 or 6 mice per test group. The tumor transplant was by intraperitoneal injection of 0.5 ml of dilute ascitic fluid containing 10^6 cells of lymphocytic leukemia P388. The test compounds were administered intraperitoneally on days 1, 5 and 9 (relative to tumor inocu-lation) at various doses. The animals were weighed and survivors recorded on a regular basis for 60 days. The median survival time and the ratio of survival time for treated (T)/control (C) animals were calculated.

[1] = dose 0.75 mg/kg intraperitoneally on days 1, 5 and 9
[2] = dose 1.5 mg/kg intraperitoneally on days 1, 5 and 9
[3] = dose 3 mg/kg intraperitoneally on days 1, 5 and 9

CC(C)(C)OC(=O)N[C@@H](CCC(=O)OCc1ccccc1)C(=O)NCCNc1ccc(NCCNC(=O)[C@H](CCC(=O)OCc2ccccc2)NC(=O)OC(C)(C)C)c2c1C(=O)c1c(O)ccc(O)c1C2=O (relative stereo) [Example 43, [S-(R*,R*)]-5,5'-(9,10-Dihydro-5,8-dihydroxy-9,10-dioxo-1,4-anthracenediyl)bis(imino-2,1-ethanediylimino)]bis[4-[[(1,1-dimethylethoxy)carbonvl]amino]-5-oxopentanoic acid]bis(phenylmethyl)ester]
Median Survival [1]: 16.5 days | T/C × 100 (%) [1]: 150% | Median Survival [2]: 17.0 days | T/C × 100 (%) [2]: 155% | Median Survival [3]: 18.0 days | T/C × 100 (%) [3]: 164%

N[C@@H](CCC(=O)OCc1ccccc1)C(=O)NCCNc1ccc(NCCNC(=O)[C@@H](N)CCC(=O)OCc2ccccc2)c2c1C(=O)c1c(O)ccc(O)c1C2=O.O=C(O)C(F)(F)F.O=C(O)C(F)(F)F (relative stereo) [Example 44, [S-(R*,R*)]-5,5'-[(9,10-Dihydro-5,8-dihydroxy-9,10-dioxo-1,4-anthracenediyl)bis(imino-2,1-ethanediylimino)]bis[4-amino-5-oxopentanoic acid]bis(phenylmethyl)ester, bis(trifluoroacetate)]
Median Survival [1]: 18.0 days | T/C × 100 (%) [1]: 164% | Median Survival [2]: 19.5 days | T/C × 100 (%) [2]: 177% | Median Survival [3]: 24.0 days | T/C × 100 (%) [3]: 218%

CC(C)(C)OC(=O)N[C@@H](CC(=O)OCc1ccccc1)C(=O)NCCNc1ccc(NCCNC(=O)[C@H](CC(=O)OCc2ccccc2)NC(=O)OC(C)(C)C)c2c1C(=O)c1c(O)ccc(O)c1C2=O (relative stereo) [Example 45, [S-(R*,R*)]-4,4'-[(9,10-Dihydro-5,8-dihydroxy-9,10-dioxo-1,4-anthracenediyl)bis(imino-2,1-ethanediylimino)]bis[3-[[(1,1-dimethylethoxy)carbonyl]amino]-4-oxobutanoic acid]bis(phenylmethyl)ester]
Median Survival [1]: 14.0 days | T/C × 100 (%) [1]: 127% | Median Survival [2]: 15.5 days | T/C × 100 (%) [2]: 141% | Median Survival [3]: 18.0 days | T/C × 100 (%) [3]: 164%

N[C@@H](CC(=O)OCc1ccccc1)C(=O)NCCNc1ccc(NCCNC(=O)[C@@H](N)CC(=O)OCc2ccccc2)c2c1C(=O)c1c(O)ccc(O)c1C2=O.O=C(O)C(F)(F)F.O=C(O)C(F)(F)F (relative stereo) [Example 46, [S-(R*,R*)]-4,4'-[(9,10-Dihydro-5,8-dihydroxy-9,10-dioxo-1,4-anthracenediyl)bis(imino-2,1-ethanediylimino)]bis[3-amino-4-oxobutanoic acid]bis(phenylmethyl)ester, bis(trifluoroacetate)]
Median Survival [1]: 21.0 days | T/C × 100 (%) [1]: 191% | Median Survival [2]: 25.5 days | T/C × 100 (%) [2]: 232% | Median Survival [3]: 26.0 days | T/C × 100 (%) [3]: 236%

CC(C)(C)OC(=O)CC[C@H](NC(=O)OCc1ccccc1)C(=O)NCCNc1ccc(NCCNC(=O)[C@H](CCC(=O)OC(C)(C)C)NC(=O)OCc2ccccc2)c2c1C(=O)c1c(O)ccc(O)c1C2=O (relative stereo) [Example 47, [S-(R*,R*)]-5,5'-[(9,10-Dihydro-5,8-dihydroxy-9,10-dioxo-1,4-anthracenediyl)bis(imino-2,1-ethanediylimino)]bis[5-oxo-4-[[(phenylmethoxy)carbonyl]amino]pentanoic acid], bis(1,1-dimethylethyl)ester]
Median Survival [1]: 15.0 days | T/C × 100 (%) [1]: 136% | Median Survival [2]: 17.0 days | T/C × 100 (%) [2]: 155% | Median Survival [3]: 16.5 days | T/C × 100 (%) [3]: 150%
